According to ChEMBL document CHEMBL1201862, “PubChem BioAssay data set” (2004):
The source made the active and inactive calls.

Tests used:
[1] = growth suppression of PTEN-null colon cells, dose response, cell-based, HCT116 PTEN knockout (AID 1047); assay type: functional;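 note: HCT116 colon tumor cells with PTEN knocked out; cells exposed to compound for 60 hours before readout; potency for loss of cell viability measured by luminescence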
[2] = Shn3 3'UTR reporter inhibitors, dose response, cell-based, Clone20 osteoblasts, firefly luciferase, cherry-picked (AID 624132); assay type: functional;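 note: firefly luciferase luminescence from reporter carrying the Shn3 3'UTR in osteoblasts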
[3] = growth suppression of beta-catenin-knockout colon cells, dose response, cell-based, HCT116, human colon tumor (AID 1045); assay type: functional;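 note: HCT116 colon tumor cells with beta catenin knocked out; cells exposed to compound for 60 hours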
[4] = control 3'UTR Renilla luciferase suppression, dose response, counter-screen for Shn3 inhibitor project, cell-based, Clone20-Shn3RL, cherry-picked (AID 624133); assay type: functional
Cytochrome P450 2C9 = Cytochrome P450 2C9 (Homo sapiens, UniProt P11712)
Chain of Cytochrome P450 2C9 (P11712 whole entry): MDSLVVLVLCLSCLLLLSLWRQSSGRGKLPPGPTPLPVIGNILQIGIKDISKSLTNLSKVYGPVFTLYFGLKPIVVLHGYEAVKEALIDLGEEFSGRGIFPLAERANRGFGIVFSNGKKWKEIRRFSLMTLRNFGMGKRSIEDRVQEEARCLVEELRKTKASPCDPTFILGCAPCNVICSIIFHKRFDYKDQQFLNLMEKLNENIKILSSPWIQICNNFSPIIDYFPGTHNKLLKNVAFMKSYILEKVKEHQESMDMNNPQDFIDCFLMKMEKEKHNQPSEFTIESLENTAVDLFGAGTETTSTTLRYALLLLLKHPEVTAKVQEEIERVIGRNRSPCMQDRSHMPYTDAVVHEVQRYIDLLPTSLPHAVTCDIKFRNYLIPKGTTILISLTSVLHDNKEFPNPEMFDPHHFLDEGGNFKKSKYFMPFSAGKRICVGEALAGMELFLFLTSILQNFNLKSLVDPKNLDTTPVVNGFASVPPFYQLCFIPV

[5] = HepG2 cell cytotoxicity, dose response, cytotoxicity control for Shn3 inhibitor project, CellTiter-Glo, cherry-picked (AID 624134); assay type: functional, cell-based
[6] = inhibitors of SNCA 5'UTR-driven reporter translation, confirmation, H4 neuroglioma cells, luminescence (AID 1988); assay type: functional, cell-based
[7] = biological target: T1, Ubiquitin-conjugating enzyme E2 N (Homo sapiens, UniProt P61088); assay type: functional;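 note: Dose-response confirmation in a TR-FRET assay detecting UBC13-driven polyubiquitin chain formation, inhibition measured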
T1 sequence (P61088 whole entry): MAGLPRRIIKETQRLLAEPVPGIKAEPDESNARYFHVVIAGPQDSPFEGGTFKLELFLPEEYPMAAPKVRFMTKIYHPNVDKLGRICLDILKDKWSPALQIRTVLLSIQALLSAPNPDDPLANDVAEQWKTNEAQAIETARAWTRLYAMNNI

[8] = Luminescence Cell-Based Dose Response HTS to Identify Inhibitors of 5'UTR Stem-Loop Driven Prion Protein mRNA Translation in H4 Neuroglioblastoma Cells. [Related pubchem assays: 1827 (Project Summary), 1813 (Primary HTS)]; assay type: functional
[9] = biological target: Beta-2 adrenergic receptor (Homo sapiens, UniProt P07550); test: beta2AR agonists driving receptor internalization, dose response, cell-based, FAP fluorogen, flow cytometry, cherry pick 1 (AID 588763); assay type: functional
Chain of Beta-2 adrenergic receptor (P07550 whole entry): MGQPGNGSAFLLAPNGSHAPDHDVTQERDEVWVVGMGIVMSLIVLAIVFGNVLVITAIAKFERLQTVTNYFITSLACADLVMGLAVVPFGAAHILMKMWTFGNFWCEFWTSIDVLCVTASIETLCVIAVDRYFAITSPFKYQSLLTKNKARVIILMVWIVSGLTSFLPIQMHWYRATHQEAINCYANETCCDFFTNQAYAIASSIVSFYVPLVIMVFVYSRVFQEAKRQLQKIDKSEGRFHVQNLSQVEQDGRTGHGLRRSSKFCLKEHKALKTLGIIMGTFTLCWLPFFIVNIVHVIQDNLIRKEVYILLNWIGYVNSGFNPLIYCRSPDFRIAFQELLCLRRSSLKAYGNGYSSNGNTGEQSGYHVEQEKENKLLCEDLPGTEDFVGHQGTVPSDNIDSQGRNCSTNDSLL

[10] = inhibitors of firefly luciferase expression or activity, dose response, H4 neuroglioma cells, luminescence (AID 1990); assay type: functional, cell-based
INS1 = test: beta cell apoptosis inhibitors, cytokine rescue, dose response, luminescence, retest (AID 449756); assay type: functional, cell-based; conditions: Rattus norvegicus;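 note: cell death triggered by IL-1 beta plus TNF-alpha plus IFN-gamma mixture; protective hits raise ATP signal compared with cytokine alone wells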
Cytochrome P450 2C19 = Cytochrome P450 2C19 (Homo sapiens, UniProt P33261); test: Cytochrome panel assay with activity outcomes. Panel member name: p450-cyp2c19 Compounds with AC50 equal or less than 10 uM are considered active; assay type: functional; conditions: read-out: AC50
Chain of Cytochrome P450 2C19 (P33261 whole entry): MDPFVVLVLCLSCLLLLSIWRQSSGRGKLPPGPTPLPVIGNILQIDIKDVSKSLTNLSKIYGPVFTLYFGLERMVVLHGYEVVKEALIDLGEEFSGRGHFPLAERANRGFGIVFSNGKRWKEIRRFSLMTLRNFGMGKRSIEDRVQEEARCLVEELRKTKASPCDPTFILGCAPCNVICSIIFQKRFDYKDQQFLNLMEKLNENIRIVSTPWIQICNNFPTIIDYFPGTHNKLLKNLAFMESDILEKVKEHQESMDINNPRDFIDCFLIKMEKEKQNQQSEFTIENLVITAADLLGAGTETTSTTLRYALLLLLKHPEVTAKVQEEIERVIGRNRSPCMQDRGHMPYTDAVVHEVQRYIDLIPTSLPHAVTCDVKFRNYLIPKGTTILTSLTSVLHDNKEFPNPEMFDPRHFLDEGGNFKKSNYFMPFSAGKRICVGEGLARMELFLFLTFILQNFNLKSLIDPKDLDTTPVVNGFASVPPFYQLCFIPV

[11] = biological target: Potassium voltage-gated channel subfamily KQT member 2 (Rattus norvegicus, UniProt O88943); test: Mode of action assay-Dose response assay for compounds that activate KCNQ2 potassium channels on automated patch clamp. [Related pubchem assays (depositor defined):AID2239, AID2258, AID2287, AID493113]; assay type: functional
Chain of Potassium voltage-gated channel subfamily KQT member 2 (O88943 whole entry): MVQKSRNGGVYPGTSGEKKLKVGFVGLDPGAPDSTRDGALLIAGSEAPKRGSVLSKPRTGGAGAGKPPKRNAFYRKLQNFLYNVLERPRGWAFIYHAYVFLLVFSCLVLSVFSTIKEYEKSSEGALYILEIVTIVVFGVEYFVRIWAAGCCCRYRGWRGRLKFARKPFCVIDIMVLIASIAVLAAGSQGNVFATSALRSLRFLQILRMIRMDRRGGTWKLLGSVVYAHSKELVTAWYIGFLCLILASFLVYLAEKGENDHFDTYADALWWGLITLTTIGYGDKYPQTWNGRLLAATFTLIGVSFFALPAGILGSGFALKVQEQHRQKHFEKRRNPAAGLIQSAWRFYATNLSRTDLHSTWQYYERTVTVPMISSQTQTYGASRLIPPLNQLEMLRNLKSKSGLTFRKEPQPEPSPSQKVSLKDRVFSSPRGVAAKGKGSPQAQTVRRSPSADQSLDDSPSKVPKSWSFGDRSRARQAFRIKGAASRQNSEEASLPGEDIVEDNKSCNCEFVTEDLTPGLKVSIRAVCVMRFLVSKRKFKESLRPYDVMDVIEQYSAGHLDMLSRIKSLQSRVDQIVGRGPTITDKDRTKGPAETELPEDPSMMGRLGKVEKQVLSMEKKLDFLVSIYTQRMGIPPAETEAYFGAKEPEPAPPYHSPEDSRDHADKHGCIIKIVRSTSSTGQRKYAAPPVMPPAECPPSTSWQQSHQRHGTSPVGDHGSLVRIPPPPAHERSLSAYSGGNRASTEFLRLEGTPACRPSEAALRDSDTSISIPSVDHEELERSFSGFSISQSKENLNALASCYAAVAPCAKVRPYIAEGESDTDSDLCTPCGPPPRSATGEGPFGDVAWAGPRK

[12] = biological target: Potassium voltage-gated channel subfamily KQT member 2/member 3 (Rattus norvegicus, UniProt O88943+O88944); test: Mode of action assay-Dose response assay for KCNQ2 activators in the KCNQ2/KCNQ3 co-expressing cells on automated patch clamp. [Related pubchem assays (depositor defined):AID2239, AID2258, AID2287]; assay type: functional
Chain of Potassium voltage-gated channel subfamily KQT member 2/member 3 (O88943 whole entry): as above
Chain of Potassium voltage-gated channel subfamily KQT member 2/member 3 (O88944 whole entry): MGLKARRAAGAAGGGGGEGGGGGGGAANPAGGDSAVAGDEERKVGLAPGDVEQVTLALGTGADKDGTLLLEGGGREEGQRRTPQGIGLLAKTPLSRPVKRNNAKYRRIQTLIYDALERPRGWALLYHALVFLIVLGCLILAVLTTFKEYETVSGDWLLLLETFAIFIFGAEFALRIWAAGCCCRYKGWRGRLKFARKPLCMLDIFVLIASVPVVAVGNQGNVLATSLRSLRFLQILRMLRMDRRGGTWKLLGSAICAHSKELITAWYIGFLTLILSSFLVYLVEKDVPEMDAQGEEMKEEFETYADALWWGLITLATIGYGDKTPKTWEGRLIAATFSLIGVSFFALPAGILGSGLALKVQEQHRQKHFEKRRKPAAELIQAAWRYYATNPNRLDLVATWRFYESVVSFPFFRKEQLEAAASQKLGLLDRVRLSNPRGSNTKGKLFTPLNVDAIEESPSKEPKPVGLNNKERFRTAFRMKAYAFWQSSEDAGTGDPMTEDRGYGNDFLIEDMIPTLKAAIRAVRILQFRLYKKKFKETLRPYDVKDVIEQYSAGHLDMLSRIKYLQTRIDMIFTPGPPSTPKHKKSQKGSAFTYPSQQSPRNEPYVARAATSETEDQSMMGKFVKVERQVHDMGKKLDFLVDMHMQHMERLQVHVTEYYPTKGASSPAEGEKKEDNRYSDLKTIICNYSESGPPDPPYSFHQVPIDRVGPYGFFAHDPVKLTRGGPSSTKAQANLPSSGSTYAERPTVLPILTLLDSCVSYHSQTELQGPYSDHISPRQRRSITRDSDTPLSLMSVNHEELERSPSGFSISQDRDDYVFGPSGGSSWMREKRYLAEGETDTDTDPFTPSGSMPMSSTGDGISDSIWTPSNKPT

[13] = biological target: Potassium voltage-gated channel subfamily KQT member 4 (Homo sapiens, UniProt P56696); test: human KCNQ4 channel current potentiation, dose response, selectivity assay for KCNQ2 activator project, automated patch clamp, CHO cells (AID 493043); assay type: functional, cell-based
Chain of Potassium voltage-gated channel subfamily KQT member 4 (P56696 whole entry): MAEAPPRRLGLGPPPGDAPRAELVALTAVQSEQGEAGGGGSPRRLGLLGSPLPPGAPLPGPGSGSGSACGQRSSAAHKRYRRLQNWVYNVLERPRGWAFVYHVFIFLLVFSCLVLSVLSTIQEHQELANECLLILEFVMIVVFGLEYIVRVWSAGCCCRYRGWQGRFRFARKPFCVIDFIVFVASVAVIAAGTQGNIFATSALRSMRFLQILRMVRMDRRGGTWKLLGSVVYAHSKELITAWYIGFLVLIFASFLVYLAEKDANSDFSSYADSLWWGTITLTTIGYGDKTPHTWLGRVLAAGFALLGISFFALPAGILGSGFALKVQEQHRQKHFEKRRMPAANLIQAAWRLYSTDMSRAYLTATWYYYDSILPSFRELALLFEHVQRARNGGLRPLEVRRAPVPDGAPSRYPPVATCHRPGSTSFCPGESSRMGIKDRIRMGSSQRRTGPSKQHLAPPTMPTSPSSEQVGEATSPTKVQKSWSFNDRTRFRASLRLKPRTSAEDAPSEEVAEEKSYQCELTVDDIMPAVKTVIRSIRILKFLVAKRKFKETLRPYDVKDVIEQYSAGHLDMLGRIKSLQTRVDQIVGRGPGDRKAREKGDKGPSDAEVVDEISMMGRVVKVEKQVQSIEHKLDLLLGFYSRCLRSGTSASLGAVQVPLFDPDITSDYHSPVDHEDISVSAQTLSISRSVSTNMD

Jurkat = test: SAR Analysis of small molecule inhibitors of T-cell specific antigen receptor-induced NF-kB activation in a Jurkat cell line using a luminescence assay - Set 2. [Related pubchem assays (depositor defined):AID435003, AID435012, AID465]; assay type: functional, cell-based; conditions: Homo sapiens
HEK293 [14] = test: cytotoxicity in HEK293T NF-kB-Luc cells, SAR follow-up, cytotoxicity control for NF-kB activator project, cell-based, resazurin fluorescence (AID 493251); assay type: functional; conditions: Homo sapiens
[15] = A Cell Based Secondary Assay To Explore Cytotoxicity of Compounds that Sensitize Mycobacterium Tuberculosis to Beta-Lactam Antibiotics.; assay type: functional
[16] = HEp-2 cell cytotoxicity, dose response, cytotoxicity control for RSV inhibitor project, HTS (AID 2410); assay type: functional; conditions: human respiratory syncytial virus
Streptococcus = test: Group A Streptococcus viability loss, dose response, counter-screen for streptokinase expression inhibitor project, luminescence, BacTiterGlo (AID 1915); assay type: functional, organism-based;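 note: potency for reduction of bacterial viability or growth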
[17] = test system: Streptococcus sp. 'group A'; test: growth inhibition of control SK(-) GAS strain, dose response, counter-screen for streptokinase expression inhibitor project, luminescence, kanamycin, BacTiterGlo, confirmation (AID 1900); assay type: functional, organism-based
HEK293 [18] = test: SAR Analysis of small molecule inhibitors of T-cell specific antigen receptor-induced NF-kB activation in a HEK-293T cell line using a luminescence assay - Set 2. [Related pubchem assays (depositor defined):AID435003, AID435012, AID489026]; assay type: functional, cell-based; conditions: Homo sapiens
Streptokinase A = biological target: T2, Streptokinase A (Streptococcus pyogenes serotype M1, UniProt P10520); test: S. pyogenes streptokinase expression inhibitors, potency, dose response, plasminogen activation absorbance, OD405 (AID 1914); assay type: functional, Streptococcus pyogenes M1 GAS;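 note: secreted streptokinase activity via plasminogen activation per viability signal from cell pellet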
T2 sequence (P10520 whole entry): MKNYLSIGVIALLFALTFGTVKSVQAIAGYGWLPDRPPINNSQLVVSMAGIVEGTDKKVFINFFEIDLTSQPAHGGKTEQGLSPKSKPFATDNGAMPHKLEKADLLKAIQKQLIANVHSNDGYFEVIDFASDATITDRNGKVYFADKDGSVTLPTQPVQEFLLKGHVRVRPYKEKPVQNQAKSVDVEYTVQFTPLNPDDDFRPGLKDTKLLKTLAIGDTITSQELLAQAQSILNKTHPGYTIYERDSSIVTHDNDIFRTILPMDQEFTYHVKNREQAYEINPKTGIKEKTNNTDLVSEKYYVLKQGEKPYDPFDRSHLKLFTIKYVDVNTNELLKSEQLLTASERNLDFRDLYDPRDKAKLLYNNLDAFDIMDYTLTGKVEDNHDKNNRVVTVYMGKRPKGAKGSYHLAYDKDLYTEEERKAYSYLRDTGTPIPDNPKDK

DNA topoisomerase = DNA topoisomerase (Yersinia pestis, UniProt A0A2S9PM60); test: Y. pestis Topo-I inhibitors, cleavage product readout, dose response, biochemical, cherry-pick (AID 588525)
Chain of DNA topoisomerase (A0A2S9PM60 whole entry): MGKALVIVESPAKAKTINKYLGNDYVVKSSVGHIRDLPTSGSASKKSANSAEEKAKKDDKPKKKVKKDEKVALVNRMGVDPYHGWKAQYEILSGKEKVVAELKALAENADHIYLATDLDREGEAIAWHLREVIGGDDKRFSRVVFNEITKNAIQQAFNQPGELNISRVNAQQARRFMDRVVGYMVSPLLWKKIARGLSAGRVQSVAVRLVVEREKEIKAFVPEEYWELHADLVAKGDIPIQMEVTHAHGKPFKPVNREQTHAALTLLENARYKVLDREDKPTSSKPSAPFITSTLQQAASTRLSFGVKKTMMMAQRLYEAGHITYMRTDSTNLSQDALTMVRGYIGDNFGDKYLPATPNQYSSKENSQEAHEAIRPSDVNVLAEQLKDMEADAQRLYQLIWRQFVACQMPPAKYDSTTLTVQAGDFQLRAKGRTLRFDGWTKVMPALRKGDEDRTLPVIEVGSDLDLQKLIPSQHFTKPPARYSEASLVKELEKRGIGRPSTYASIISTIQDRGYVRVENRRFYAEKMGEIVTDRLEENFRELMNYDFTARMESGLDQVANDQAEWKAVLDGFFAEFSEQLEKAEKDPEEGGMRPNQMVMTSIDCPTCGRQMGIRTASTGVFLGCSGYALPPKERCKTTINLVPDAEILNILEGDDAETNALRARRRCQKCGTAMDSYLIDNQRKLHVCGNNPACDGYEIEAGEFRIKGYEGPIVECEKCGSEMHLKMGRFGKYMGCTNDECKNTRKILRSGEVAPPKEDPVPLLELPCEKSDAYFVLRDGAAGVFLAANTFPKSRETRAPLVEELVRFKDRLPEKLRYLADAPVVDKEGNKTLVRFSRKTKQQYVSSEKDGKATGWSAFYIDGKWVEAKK

In the case of `CCOc1cc(CNCCc2ccc(S(N)(=O)=O)cc2)ccc1OCc1ccc(Cl)cc1`, the EC50 [1] is reported as 8.2 µM (active), the AC50 [2] is reported as 3.87 µM (active) and the EC50 [3] is reported as 3.56 µM (active). The AC50 [4] was 4.75 µM (active), the AC50 (Cytochrome P450 2C9) was 11.2 µM (inconclusive) and the AC50 [5] was 9.14 µM (active). For the same molecule, the EC50 [6] was 59.1 µM (active), the IC50 [7] was > 20 µM (inactive) and the EC50 [8] was > 120 µM (not active). For the same molecule, the EC50 [9] was 16.1 µM (inactive), the EC50 [10] was 9.07 µM (active) and the AC50 (INS1) was 4.78 µM (active). The AC50 (Cytochrome P450 2C19) was 17.8 µM (inconclusive).
In the case of `Cc1cccc(C)c1NC(=O)C1CC2CCC1C2` (stereo unspecified), the EC50 [11] is reported as 3.24 µM (active), the EC50 [12] is reported as 4.66 µM (active) and the EC50 [13] is reported as 13.4 µM (active).
In the case of `Cc1cc(NC(=O)c2ccc3c(c2)OCCO3)ccc1NC(=O)c1cc2ccccc2o1`, the IC50 (cells) is reported as 7.55 µM (active), the IC50 (Jurkat) is reported as 38.6 µM (inactive) and the IC50 (HEK293 [14]) is reported as 8.04 µM (active). For the same molecule, the CC50 [15] was > 40 µM (active), the CC50 [16] was 18.2 µM (active) and the EC50 (Streptococcus) was 14.9 µM (active). The EC50 [17] was 14 µM (active), the IC50 (HEK293 [18]) was 8.84 µM (active) and the EC50 (Streptokinase A) was > 150 µM (not active).
With `CC(=O)c1cccc(NC(=O)CCc2nnc3ccc(NCc4ccc5c(c4)OCO5)nn23)c1` the AC50 (DNA topoisomerase) was 7.46 µM (active).
